Experimental data published in US6331642A, “Vitamin D3 analogs” (Hoffmann-La Roche Inc., priority 2000, dated 2001).
Like-named read-outs stand apart in the source and are kept apart here.

Experiments:
[1] = Serum calcium levels in ovariectomized rats; assay type: in vivo, adult female rats; conditions: ovx rats, Ovx/Veh. 10.41
Procedure: Three month old adult female rats were subjected to bilateral ovariectomy or sham surgery. […] Dose volume was calculated weekly using the group average body weight. Dosing started 17 days post surgery and continued for 19 days. On the 20th day animals were euthanized by carbon dioxide inhalation and left femurs excised.
Blood (1.5 ml) was collected from each animal by orbital puncture under ether anesthesia on day 7 and day 18 of dosing. Blood was collected into serum separator tubes, centrifuged at 2000 rpm for 15 min. and then serum aliquoted for calcium determinations. Serum calcium was determined by colorimetric assay.
For a verification of the effect of ovariectomy on bone calcium, the sham and ovx vehicle groups were compared using student's t-test. The ovx groups were compared by one-way analysis of variance (ANOVA), followed by Fisher's LSD to compare each treatment group to vehicle when the overall effect was statistically significant.

p27^kip1 [2] = assay: Western blot analysis, p27^kip1 in HL-60 cells; assay type: cell-based
Procedure: Western Blot Analysis. Cells were washed twice with PBS, suspended in Lysis buffer (50 mM Tris Ph 8.0, 150 mM NaCl, 0.1% SDS, 0.5% sodium deoxycholate, 1% NP40, 100 μg/ml phenylmethylsulfonyl fluoride, 2 μg/ml aprotinin, 1 μg/ml pepstatin and 10 μg/ml leupeptin), and placed on ice for 30 minutes. After centrifugation at 15,000 g for 20 minutes at 4° C., the supernatant was collected. Protein concentrations were quantitated. […] Blots were developed.
The dose-dependent effect of the vitamin D3 compounds on expression of p27^kip1 HL-60 cells was examined.

ventral prostate = assay: Antiandrogenic activity in castrated testosterone stimulated hamsters, ventral prostate; assay type: in vivo, male Syrian hamsters
Procedure: (§1) 1,25(OH)2 -16-ene-5,6-trans D3 was evaluated for antiandrogenic activity in castrated, testosterone stimulated male Syrian hamsters.
(§2) […] Both compounds were administered in a vehicle of 0.2 ml sesame oil each. Necropsy was performed on day 15. The prostate and seminal vesicles were removed, blotted and weighed. Data were analyzed for statistical significance using the Student's t-test and are expressed as percent inhibition of stimulated response.

p21^waf1 = assay: Western blot analysis, p21^waf1 in MCF-7 cells; assay type: cell-based; conditions: Homo sapiens, read-out: increase in expression of p21^waf1
Procedure: (§3) Western Blot Analysis. Cells were washed twice with PBS, suspended in Lysis buffer (50 mM Tris Ph 8.0, 150 mM NaCl, 0.1% SDS, 0.5% sodium deoxycholate, 1% NP40, 100 μg/ml phenylmethylsulfonyl fluoride, 2 μg/ml aprotinin, 1 μg/ml pepstatin and 10 μg/ml leupeptin), and placed on ice for 30 minutes. After centrifugation at 15,000 g for 20 minutes at 4° C., the supernatant was collected. Protein concentrations were quantitated. Whole lysates (15 μg) were resolved by 15% sodium dodecyl sulphate polyacrylamide gel, were transferred to an immobilon polyvinylidene difuride membrane and were probed with anti-p27^kip1 rabbit polyclonal antibody and anti-Actin murine monoclonal antibody. Blots were developed.
(§4) Western Blot Analysis. The cyclin dependent kinase inhibitors known as p21^waf1 and p27^kip1 are able to inhibit the activity of cyclin kinase and thus slow the progression for the cells through the cell cycle. […] Exposure for one day to 1,25(OH)2 -16-ene-5,6-trans-D3 (10^-7 M) increased expression of p21^waf1 and p27^kip1 by about 3.2-3.5 fold, whereas culture with 1,25(OH)2 D3 (10^-7 M) increased expression of p21^waf1 and p27^kip1 about 1.6-1.8 fold. […] 1,25(OH)2 D3 (10^-7 M, 3 days) increased expression of p21^waf1 and p27^kip1 by 4.8 fold and 3.3 fold, respectively.

p27^kip1 [3] = assay: Western blot analysis, p27^kip1 in MCF-7 cells; assay type: cell-based; conditions: Homo sapiens, read-out: increase in expression of p27^kip1
Procedure: as §3, §4

hTERT mRNA = hTERT mRNA expression (RT-PCR) in HL-60 cells; assay type: cell-based, human; conditions: for IC (almost complete): Homo sapiens, read-out: concentration giving almost complete inhibition of hTERT mRNA expression
Procedure: Telomerase Activity. To detect the relative telomerase activity, telomeric repeat amplification protocol (TRAP) assays were performed. For human telomerase reverse transcriptase (hTERT), total RNAs were isolated from HL-cells which were treated with either 1,25(OH)2 D3 or 1,25(OH)2 -16-ene-5,6-trans-D3 (10^- 9 10^-8, and 10^-7 M) for 4 days with a monophasic solution of phenol and guanidine isothiocyanate. RT-PCR was performed with 1 μg of total RNA and random hexamer primers. cDNA was amplified using primers specific for the hTERT gene or the GAPDH gene, which was used as a control. The primers used for hTERT were: 5'-[…]-3' (sense) (SEQ ID NO: 1), and 5'-GGATGAAGCGGAGTCTGGA-3'-(antisense) (SEQ ID NO: 2). The thermal cycles were 94° C. for 90 seconds, followed by 33 cycles of 95° C. for 20 seconds, 68° C. for 40 seconds, and 72° C. for 30 seconds. Primers for the GAPDH gene were: 5'-CCATGGAGAAGGCTGGGG-3' (sense) (SEQ ID NO: 3), and 5'-[…]-3' (antisense) (SEQ ID NO: 4). Conditions for GAPDH amplifications were: 94° C. for 2 minutes, 26 cycles of 94° C. for 30 seconds, 62° C. for 40 seconds, 72° C. for 60 seconds, followed by 72° C. for 4 minutes. PCR products were electrophoresed on 1% agarose gel and stained with ethidium bromide.
The effects of vitamin D3 analogs on hTERT expression in HL-60 cells was evaluated using RT-PCR.

seminal vesicles = assay: Antiandrogenic activity in castrated testosterone stimulated hamsters, seminal vesicles; assay type: in vivo, male Syrian hamsters
Procedure: as §1, §2

left femur (distal half) = assay: Total femoral bone calcium in ovariectomized rats; assay type: in vivo, adult female rats; conditions: ovx rats, 19 days, text: calcium in mg/distal half femur, Ovx/Veh. 10.58
Procedure: Three month old adult female rats were subjected to bilateral ovariectomy or sham surgery. After a week of acclimatization the animals were weight grouped and treated by oral gavage at 1 mg/kg of specified concentration. Dose volume was calculated weekly using the group average body weight. Dosing started 17 days post surgery and continued for 19 days. On the 20th day animals were euthanized by carbon dioxide inhalation and left femurs excised.
At necropsy the left femurs from all groups were excised and soft tissue removed. The bones were measured and cut in half at mid-diaphysis; then the distal portion was cut in half longitudinally after removal of the epiphysis. The bone marrow was flushed out and the calcium was extracted by immersion in 5% TCA. The calcium content of TCA extracts was determined by using quantitative, colorimetric determination of calcium. The data were expressed as mean total bone calcium in mg/distal half femur (DHF)±serum.

MCF-7 cells = assay: Cell cycle analysis by flow cytometry; assay type: cell-based; conditions: 10^-7 M, 4 days
Procedure: Cell Cycle Analysis by Flow Cytometry. Cell cycle analysis was performed on MCF-7 cells incubated for 4 days with either 1,25(OH)2 D3 or 1,25(OH)2 -16-ene-5,6-trans-D3 at 10^-7 M. The cells were fixed in chilled methanol overnight before staining with 50 μg/ml propidium iodide, 1 mg/ml Rnase (100 units/ml) and 0.1% NP40. Analysis was performed immediately after staining. All experiments were done at least three times independently. All data were statistically analyzed by Student's test.
Cell cycle Analysis. Effect of 1,25(OH)2 -16-ene-5,6-trans-D3 and 1,25(OH)2 D3 (10^-7, 4 days) on the cell cycle of the MCF-7 cells was determined.

[4] = castrated, testosterone stimulated hamsters
[5] = testosterone + 0.1 μg compound s.c. daily, 14 days

Structure (SMILES)	expression of p27^kip1 (p27^kip1 [2])	fold induction at 0.1 µM (p21^waf1; MCF7, 24 h)	fold induction at 0.1 µM (p21^waf1; MCF7, 72 h)	fold induction at 0.1 µM (p27^kip1 [3]; MCF7, 24 h)	fold induction at 0.1 µM (p27^kip1 [3]; MCF7, 72 h)	expression of hTERT mRNA (hTERT mRNA; HL-60 cells, 4 days)	number of cells in the G0-G1 phase (MCF-7 cells)	proportion of cells in S phase (MCF-7 cells)	further results
C=C1/C(=C\C=C2/CCC[C@]3(C)[C@@H]([C@H](C)CCCC(C)(C)O)CC[C@@H]23)C[C@@H](O)C[C@@H]1O [1,25(OH)2 D3, reference compound]	up-regulated	1.6 to 1.8	4.8	1.6 to 1.8	3.3	inhibited the expression of hTERT mRNA in a dose-dependent manner	significant increase (P≤0.05)	concomitant decrease	Serum Calcium ([1]; dose printed 0500 μg/kg oral): 11.74 mg/dL; levels of p27^kip1 (p27^kip1 [2]; 10^-8-10^-7 M): increased prominently; androgen-induced hypertrophy of the ventral prostate gland (ventral prostate; non-toxic doses (1 μg)): inactive; IC (almost complete) (hTERT mRNA; HL-60, 96 h): 0.1 µM; androgen-induced hypertrophy of the seminal vesicles (seminal vesicles; non-toxic doses (1 μg)): inactive; Femur CA/100 g BW (left femur (distal half); 0.500 μg/kg oral): 11.91 /100 g BW
C=C1/C(=C/C=C2\CCC[C@]3(C)C([C@H](C)CCCC(C)(C)O)=CC[C@@H]23)C[C@@H](O)C[C@@H]1O [1,25(OH)2-16-ene-5,6-trans-D3, 1,25-Dihydroxy-16-ene-5,6-trans-cholecalciferol]	up-regulated	3.2 to 3.5	2.8	3.2 to 3.5	3.4	inhibited the expression of hTERT mRNA in a dose-dependent manner	significant increase (P≤0.05)	concomitant decrease	Serum Calcium ([1]; 2.000 μg/kg oral): 9.98 mg/dL; expression of p27^kip1 (p27^kip1 [2]; 4 days, 10^-9 M): markedly increased; androgen-induced hypertrophy of the ventral prostate gland (ventral prostate; [4]): substantially suppressed; Ventral prostate Inhib. (percent inhibition of stimulated response) (ventral prostate; [5]): 77%; Ventral prostate weight (ventral prostate; [5]): 19 ± 2 mg; IC (almost complete) (hTERT mRNA; 96 h, HL-60 cells, 4 days): 0.01 µM; androgen-induced hypertrophy of the seminal vesicles (seminal vesicles; [4]): substantially suppressed; Seminal vesicles Inhib. (percent inhibition of stimulated response) (seminal vesicles; [5]): 48%; Seminal vesicles weight (seminal vesicles; testosterone + 0.1 μg compound s.c. daily, 14 days, mg ± SEM): 71 ± 1 mg; Femur CA/100 g BW (left femur (distal half); 2.000 μg/kg oral): 11.49 /100 g BW
